What is called EC50 is the concentration needed to bring the measured effect to its halfway point.

Holding throughout (format): biochemical
The nature of assay [1]: Hydroxyl radical scavenging potential (HORAC assay). The settings on record: for Antioxidant capacity Against Hydroxyl Radicals (GAE): HORAC assay, Fenton reaction, gallic acid equivalent, mean±SD, n=3; for Inhibition of fluorescein oxidation by hydroxyl radicals relative to gallic acid: HORAC, gallic acid standard, concentration-dependent. As for the experimental part: The ability of SDGs to scavenge hydroxyl radicals in a chemical system was evaluated using HORAC Assay kit (# TA30) obtained from Oxford Biomedical Research. Hydroxyl radicals were generated from hydrogen peroxide by Fenton reaction. Oxidation of fluorescein was measured on a fluorescence microplate reader. Antioxidants inhibit fluorescein oxidation. Gallic acid was used as a standard for calibration curve. Calculations used SDG concentration that fit the linear part of the calibration curve. SDG concentrations were used in the range of […]. Antioxidant capacity against hydroxyl radicals was expressed as gallic acid equivalent (GAE).
(§1) The ability of synthetic (S,S)-SDG-1 and (R,R)-SDG-2 to scavenge hydroxyl and peroxyl radicals as manifested by their inhibition of the oxidation of fluorescein was assessed by the hydroxyl radical averting capacity (HORAC, gallic acid standard) and peroxyl radical absorbance capacity assays (ORAC, trolox standard), respectively (Table 1). […] However, synthetic (S,S)-SDG-1 activity differed from natural (S,S)-SDG-1, likely due to trace impurities.
(§2) In Table 1, hydroxyl radicals were generated from hydrogen peroxide by Fenton reaction. Peroxyl radicals were generated by AAPH (2,2′-azobis(2-amidinopropane) dihydrochloride). Oxidation of fluorescein was measured. Calculations used SDG concentrations that fitted the linear part of the calibration curve. The results are presented as mean±standard deviation (n=3).

Assay [2] can be described thus: Reducing power activity assay (ferricyanide reduction, absorbance at 700 nm). The settings on record: regression line over 1-100 μM; sodium phosphate buffer pH 6.6; n=3; read-out: EC50 for reducing power (mean±std. dev.). As for the experimental part: The determination of reducing power was performed as described by Yen and Der (J. Am. Oil Chem. Soc. 1993, 70, 383). Reducing power assay determines the reducing potential of the test compound which reacts with potassium ferricyanide (Fe^+3) to form potassium ferrocyanide (Fe^+2), which subsequently reacts with ferric chloride to produce a ferric-ferrous complex that has maximum absorption at 700 nm. Various concentrations (1-500 μM) of test compounds were taken in sodium phosphate buffer (0.1 M, pH 6.6) in 96-well microplates and mixed with potassium ferricyanide (1%). Samples were incubated at 50° C. and equal volume of 10% trichloroacetic acid was added. The upper layer was mixed with deionized water (1:1:2) and ferric chloride (0.1%). The absorbance was read at 700 nm on a Bio-Rad microplate reader (Bio-Rad, Hercules, Calif.). The increase in absorbance indicates increase in reducing power.
The reducing powers of synthetic (S,S)-SDG-1, synthetic (R,R)-SDG-2, natural (S,S)-SDG-1, ascorbic acid, and α-tocopherol were determined by the reduction of K3FeCN6 in the presence of FeCl3, as measured by the absorbance of the resulting ferric-ferrous complex (FIG. 2). […] This allowed the half maximal effective concentration (EC50) for reducing power to be calculated (FIG. 3).

Assay [3] is described as follows: Peroxyl radical scavenging potential (ORAC assay). Conditions: for Antioxidant capacity Against Peroxyl Radicals (TE): ORAC assay, AAPH-generated radicals, Trolox equivalents, mean±SD, n=3; for Inhibition of fluorescein oxidation by peroxyl radicals relative to trolox: ORAC, trolox standard, AAPH. On the procedure: The ability of SDGs to scavenge peroxyl radicals in a chemical system was evaluated using an ORAC assay kit (# STA345) obtained from Cell Biolab (San Diego, Calif.). Peroxyl radicals were generated by AAPH (2,2′-azobis(2-amidinopropanedihydrochloride). Oxidation of fluorescein was measured using a fluorescence microplate reader. Antioxidants inhibit fluorescein oxidation. Trolox was used as a standard for calibration curve. Calculations used SDG concentrations that fit the linear part of the calibration curve. SDG concentrations were used in the range of 8 μM-1 mM. Antioxidant capacity against peroxyl radicals was expressed as Trolox equivalent (TE).
as §1, §2

Assay [4] is described as follows: DPPH radical scavenging assay. Conditions: for EC50: regression lines over 5-100 μM, 250 μM DPPH, Tris buffer pH 7.4, 20 min, n=3, read-out: DPPH free radical scavenging activity EC50. As for the experimental part:
The ability of the SDGs to scavenge DPPH radicals was assessed as described by Moree et al. (Free Rad. Anitox. 2011, 1, 31) with minor modifications for use in microplates. Briefly, different concentrations of SDG isomers and other test compounds were incubated with 200 μL medium in 96-well microplates containing 0.1 M Tris buffer (pH 7.4) and 250 μM DPPH solution, and kept in the dark for 20 min. The absorbance was read at 517 nm in a Bio-Rad microplate reader. Ascorbic acid and α-tocopherol were used as known antioxidants for comparison. The radical scavenging activity was measured as a decrease in the absorbance of DPPH and calculated using the following equation: Percentage inhibition=[O.D.control−O.D.treated/O.D.control]×100.
The free radical scavenging activities of synthetic (S,S)-SDG-1 and (R,R)-SDG-2 were determined using a 2,2-diphenyl-1-pierylhydrazyl (DPPH) free radical scavenging assay and was compared to those of natural (S,S)-SDG-1, ascorbic acid, and α-tocopherol (FIG. 4). […] Establishing regression lines for the potentials at low- and mid-concentration ranges (5-100 μM) allowed the free radical EC50 scavenging activity of these compounds to be determined.

With `COc1cc(C[C@@H](CO[C@@H]2O[C@H](CO)[C@@H](O)[C@H](O)[C@H]2O)[C@H](CO[C@@H]2O[C@H](CO)[C@@H](O)[C@H](O)[C@H]2O)Cc2ccc(O)c(OC)c2)ccc1O` [synthetic (R,R)-SDG-2, (R,R)-secoisolariciresinol diglucoside], in assay [1], the “Antioxidant capacity Against Hydroxyl Radicals (GAE)” value worked out at 1.96 ± 0.27 GAE and the “Inhibition of fluorescein oxidation by hydroxyl radicals relative to gallic acid” value is listed as “two-fold higher than gallic acid”. For the same compound, in assay [2], the EC50 was 332 ± 21.2 µM. Besides, in assay [3], the “Antioxidant capacity Against Peroxyl Radicals (TE)” value came to 2.20 ± 0.10 TE and the “Inhibition of fluorescein oxidation by peroxyl radicals relative to trolox” value is given as “two-fold increase in potency over the trolox standard”. The EC50 in assay [4] amounted to 124 ± 8.67 µM.
In the case of `COc1cc(C[C@H](CO[C@@H]2O[C@H](CO)[C@@H](O)[C@H](O)[C@H]2O)[C@@H](CO[C@@H]2O[C@H](CO)[C@@H](O)[C@H](O)[C@H]2O)Cc2ccc(O)c(OC)c2)ccc1O` [natural (S,S)-SDG-1, (S,S)-secoisolariciresinol diglucoside], in assay [1], the “Antioxidant capacity Against Hydroxyl Radicals (GAE)” value was determined as 3.68 ± 0.27 GAE. For the same compound, in assay [2], the EC50 worked out at 275 ± 13.2 µM. In assay [3], the “Antioxidant capacity Against Peroxyl Radicals (TE)” value came out at 2.55 ± 0.11 TE and the “Inhibition of fluorescein oxidation by peroxyl radicals relative to trolox” value is reported as “two-fold increase in potency over the trolox standard”. Further, the EC50 in assay [4] is 83.9 ± 2.8 µM.
In the case of `Cc1c(C)c2c(c(C)c1O)CC[C@@](C)(CCC[C@H](C)CCC[C@H](C)CCCC(C)C)O2` [α-tocopherol, reference compound], the EC50 in assay [2] was found to be 945 ± 148 µM; in assay [4], 133 ± 12.6 µM.
On the same counts, the results for `O=C1O[C@H]([C@@H](O)CO)C(O)=C1O` [ascorbic acid, reference compound] are 1130 ± 88.8 µM and 440 ± 11.8 µM.
In the case of `COc1cc(C[C@H](CO[C@@H]2O[C@H](CO)[C@@H](O)[C@H](O)[C@H]2O)[C@@H](CO[C@@H]2O[C@H](CO)[C@@H](O)[C@H](O)[C@H]2O)Cc2ccc(O)c(OC)c2)ccc1O` [synthetic (S,S)-SDG-1, (S,S)-secoisolariciresinol diglucoside], in assay [1], the “Antioxidant capacity Against Hydroxyl Radicals (GAE)” value was 2.09 ± 0.16 GAE and the “Inhibition of fluorescein oxidation by hydroxyl radicals relative to gallic acid” value is on record as “two-fold higher than gallic acid”. For the same compound, the EC50 in assay [2] stood at 292 ± 27.7 µM. Further, in assay [3], the “Antioxidant capacity Against Peroxyl Radicals (TE)” value amounted to 3.03 ± 0.04 TE and the “Inhibition of fluorescein oxidation by peroxyl radicals relative to trolox” value is on record as “two-fold increase in potency over the trolox standard”. The “DPPH inhibition at higher concentrations” value in assay [4] (250-500 μM) is “significantly lower than those exerted by (R,R)-SDG-2 and natural (S,S)-SDG-1”. The EC50 in assay [4] turned out to be 158 ± 21.3 µM.
